Experimental findings from patent US8802082B2, “Rhodamine derivatives for photodynamic diagnosis and treatment” (Université de Montreal, priority 1999, dated 2014) are described below.

Experiment [1] deals with activated T lymphocytes (CD25+, CD4+ and CD8+). Put plainly: Phenotypic analysis of residual T lymphocytes after phototherapy (CD25, CD4, CD8 flow cytometry). Type of experiment: cell-based, human. Particulars: 10 μM TH9402; 2.5, 5 and 10 joules/cm^2; 48 to 72 hours culture; untreated 14%. On the procedure: In order to determine if the abrogation of reactivity toward subject B obtained after PDT correlated with the loss of activated T cells, the proportion of activated cells was determined in samples exposed or not to PDT. Activated cells can be discriminated from resting T lymphocytes by their enhanced expression of CD25, which can be detected with a monoclonal antibody specific for CD25, the inducible a chain of the IL-2 receptor. Briefly, after activation of T cells in mixed lymphocyte reaction, as described above, activated T lymphocytes were incubated in X-vivo 15 medium (BioWhittaker) supplemented with 2.5% human AB serum and 10 μM TH9402 for 40 min. These cells were than washed twice with X-vivo-15 medium supplemented with 10% AB human serum. At 110 min after the end of the incubation period, cells were exposed to doses of light ranging from 2.5 to 10 joules/cm^2 of using the above described light delivery device (U.S. Pat. No. 5,798,523). Light energy was delivered using a fluorescent scanning device with maximum wavelength at 512 nm. After treatment, cells were cultured for 48 to 72 hours in X-vivo-15 medium supplemented with 15% of human AB serum. After the latter incubation period, cells were counted and their immunophenotypes analyzed by dual-color flow cytometry to determine the proportion of activated T lymphocytes. […]
A general note: Flow cytometry measures light scatter and fluorescence of single cells or particles in a stream.

Experiment [2] relates to cells from subject A, activated against B. In words: Allogeneic T cell activation (one-way mixed lymphocyte culture), PDT, then proliferation assay. The format is cell-based, human. Particulars: TH9402 PDT, 5-day proliferation assay. On the procedure:
Suspensions of cells were then incubated with 10 μM TH9402 for 40 minutes at 37° C. Cells were treated at 1×10^6 cells/mL in X-vivo-15 medium without phenol red (BioWhittaker, Walkersville, Md., USA) supplemented with 2,5% FBS. At the end of the incubation period, cells were spun down and the cell pellet resuspended in the X-vivo culture medium in the absence of dye, supplemented with 10% FBS. Cells were then placed in T-flasks (Corning, Cambridge, Mass., USA) for 90 minutes at 37° C. Following this second incubation in medium without dye, cells were exposed at 3 mm thickness to desired light energy, usually 5 joules/cm^2 using a previously described light delivery device (U.S. Pat. No. 5,798,523). Light energy was delivered using a fluorescent scanning lamp device with maximum wavelength around 512 nm.
The latter cells were serially diluted in order to obtain effector (treated cells) to target ratios ranging from 2:1 to 1:4 (4×10^4 treated effector cells/well) and incubated at 37° C. for 5 days. Eighteen hours prior to harvesting, 1 μCi of ^3H-thymidine was added. Cells were harvested using a PHD cell harvester (Cambridge Technology, Boston, Mass., USA). Radioactivity in the cell harvest was counted using a liquid scintillation counter (Beckman, Chicago, Ill., USA).
Another approach was used in this study to activate cells against specific target antigens. […]

For `Br.COC(=O)c1ccccc1-c1c2ccc(=N)c(Br)c-2oc2c(Br)c(N)ccc12` [TH9402, 4,5-dibromorhodamine 123 (2-(4,5-dibromo-6-amino-3-imino-3H-xanthen-9-yl)-benzoic acid methyl ester) hydrobromide], the “proportion of activated T lymphocytes, both CD4+ and CD8+, after PDT” value in experiment [1] is recorded as “below 1%”. Besides, in experiment [2], the “proliferation when exposed to C cells (mismatched unrelated)” value is recorded as “retained the capacity to proliferate” and the “proliferation when reexposed to cells from B” value is reported as “did not proliferate”.
